Results reported in PubChem BioAssay (NCI).
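Grown in 96-well plates, cells were treated for 48 hours with each compound at five concentrations. Insufficient inhibition: endpoint recorded as highest concentration tested. TGI: total growth inhibition.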

What was measured:
Assay in all cases: NCI tumour cell line growth inhibition, 48 h
786-0 renal = system: 786-0 renal
A498 renal = system: A498 renal
A549 NSCLC = system: A549 NSCLC
ACHN renal = system: ACHN renal
CAKI-1 renal = system: CAKI-1 renal
CCRF-CEM leukemia = system: CCRF-CEM leukemia
COLO 205 colon = system: COLO 205 colon
DLD-1 colon = system: DLD-1 colon
DMS 114 small cell lung = system: DMS 114 small cell lung
DMS 273 small cell lung = system: DMS 273 small cell lung
EKVX NSCLC = system: EKVX NSCLC
HCC-2998 colon = system: HCC-2998 colon
HCT-116 colon = system: HCT-116 colon
HCT-15 colon = system: HCT-15 colon
HL-60(TB) leukemia = system: HL-60(TB) leukemia
HOP-18 NSCLC = system: HOP-18 NSCLC
HOP-62 NSCLC = system: HOP-62 NSCLC
HOP-92 NSCLC = system: HOP-92 NSCLC
HT29 colon = system: HT29 colon
IGROV1 ovarian = system: IGROV1 ovarian
K-562 leukemia = system: K-562 leukemia
KM12 colon = system: KM12 colon
KM20L2 colon = system: KM20L2 colon
LOX IMVI melanoma = system: LOX IMVI melanoma
LXFL 529 NSCLC = system: LXFL 529 NSCLC
M14 melanoma = system: M14 melanoma
M19-MEL melanoma = system: M19-MEL melanoma
MALME-3M melanoma = system: MALME-3M melanoma
MOLT-4 leukemia = system: MOLT-4 leukemia
NCI-H226 lung = system: NCI-H226 lung
NCI-H23 lung = system: NCI-H23 lung
NCI-H460 lung = system: NCI-H460 lung
NCI-H522 lung = system: NCI-H522 lung
OVCAR-3 ovarian = system: OVCAR-3 ovarian
OVCAR-4 ovarian = system: OVCAR-4 ovarian
OVCAR-5 ovarian = system: OVCAR-5 ovarian
OVCAR-8 ovarian = system: OVCAR-8 ovarian
RPMI-8226 leukemia = system: RPMI-8226 leukemia
RXF 393 renal = system: RXF 393 renal
RXF-631 renal = system: RXF-631 renal
SF-268 CNS = system: SF-268 CNS
SF-295 CNS = system: SF-295 CNS
SF-539 CNS = system: SF-539 CNS
SK-MEL-2 melanoma = system: SK-MEL-2 melanoma
SK-MEL-28 melanoma = system: SK-MEL-28 melanoma
SK-MEL-5 melanoma = system: SK-MEL-5 melanoma
SK-OV-3 ovarian = system: SK-OV-3 ovarian
SN12C renal = system: SN12C renal
SNB-19 CNS = system: SNB-19 CNS
SNB-75 CNS = system: SNB-75 CNS
SNB-78 CNS = system: SNB-78 CNS
SR leukemia = system: SR leukemia
SW-620 colon = system: SW-620 colon
TK-10 renal = system: TK-10 renal
U251 CNS = system: U251 CNS
UACC-257 melanoma = system: UACC-257 melanoma
UACC-62 melanoma = system: UACC-62 melanoma
UO-31 renal = system: UO-31 renal
XF 498 CNS = system: XF 498 CNS
P388 leukemia = system: P388 leukemia
P388/ADR leukemia = system: P388/ADR leukemia
PC-3 prostate = system: PC-3 prostate

Molecule CC(C)C(=O)NC(=S)Nc1ccc([N+](=O)[O-])cc1C#N has a TGI (786-0 renal) of over 100 µM, a TGI (A498 renal) of over 100 µM and a TGI (A549 NSCLC) of over 100 µM. It also gave a TGI (ACHN renal) of over 100 µM, a TGI (CAKI-1 renal) of over 100 µM and a TGI (CCRF-CEM leukemia) of over 100 µM. The TGI (COLO 205 colon) was 52.7 µM, the TGI (DLD-1 colon) was over 100 µM and the TGI (DMS 114 small cell lung) was over 100 µM. The TGI (DMS 273 small cell lung) was over 100 µM, the TGI (EKVX NSCLC) was over 100 µM and the TGI (HCC-2998 colon) was over 100 µM. It also gave a TGI (HCT-116 colon) of over 100 µM, a TGI (HCT-15 colon) of over 100 µM and a TGI (HL-60(TB) leukemia) of over 100 µM. For the same molecule, the TGI (HOP-18 NSCLC) was over 100 µM, the TGI (HOP-62 NSCLC) was over 100 µM and the TGI (HOP-92 NSCLC) was over 100 µM. The TGI (HT29 colon) was over 100 µM, the TGI (IGROV1 ovarian) was over 100 µM and the TGI (K-562 leukemia) was over 100 µM. It also gave a TGI (KM12 colon) of over 100 µM, a TGI (KM20L2 colon) of over 100 µM and a TGI (LOX IMVI melanoma) of over 100 µM. For the same molecule, the TGI (LXFL 529 NSCLC) was over 100 µM, the TGI (M14 melanoma) was over 100 µM and the TGI (M19-MEL melanoma) was over 100 µM. It also gave a TGI (MALME-3M melanoma) of over 100 µM, a TGI (MOLT-4 leukemia) of over 100 µM and a TGI (NCI-H226 lung) of over 100 µM. It also gave a TGI (NCI-H23 lung) of over 100 µM, a TGI (NCI-H460 lung) of over 100 µM and a TGI (NCI-H522 lung) of over 100 µM. The TGI (OVCAR-3 ovarian) was over 100 µM, the TGI (OVCAR-4 ovarian) was over 100 µM and the TGI (OVCAR-5 ovarian) was over 100 µM. It also gave a TGI (OVCAR-8 ovarian) of over 100 µM, a TGI (RPMI-8226 leukemia) of over 100 µM and a TGI (RXF 393 renal) of over 100 µM. For the same molecule, the TGI (RXF-631 renal) was over 100 µM, the TGI (SF-268 CNS) was over 100 µM and the TGI (SF-295 CNS) was over 100 µM. For the same molecule, the TGI (SF-539 CNS) was over 100 µM, the TGI (SK-MEL-2 melanoma) was over 100 µM and the TGI (SK-MEL-28 melanoma) was over 100 µM. The TGI (SK-MEL-5 melanoma) was over 100 µM, the TGI (SK-OV-3 ovarian) was over 100 µM and the TGI (SN12C renal) was over 100 µM. It also gave a TGI (SNB-19 CNS) of over 100 µM, a TGI (SNB-75 CNS) of over 100 µM and a TGI (SNB-78 CNS) of over 100 µM. It also gave a TGI (SR leukemia) of over 100 µM, a TGI (SW-620 colon) of over 100 µM and a TGI (TK-10 renal) of over 100 µM. For the same molecule, the TGI (U251 CNS) was over 100 µM, the TGI (UACC-257 melanoma) was over 100 µM and the TGI (UACC-62 melanoma) was over 100 µM. It also gave a TGI (UO-31 renal) of over 100 µM and a TGI (XF 498 CNS) of over 100 µM.

CCCCCCCCCCNC1CC(OC2CC(O)(C(O)CO)Cc3c(O)c4c(c(O)c32)C(=O)c2c(OC)cccc2C4=O)OC(C)C1O (configuration not stated) gave a TGI (A498 renal) of 2.62 µM, a TGI (CCRF-CEM leukemia) of 4.91 µM and a TGI (DLD-1 colon) of 2.28 µM. The TGI (HCC-2998 colon) was 2.74 µM, the TGI (HCT-116 colon) was 0.65 µM and the TGI (HCT-15 colon) was 4 µM. It also gave a TGI (K-562 leukemia) of 0.963 µM, a TGI (MOLT-4 leukemia) of 0.9 µM and a TGI (NCI-H23 lung) of 12.6 µM. It also gave a TGI (NCI-H522 lung) of 3.73 µM, a TGI (OVCAR-5 ovarian) of 3.29 µM and a TGI (P388 leukemia) of 0.362 µM. For the same molecule, the TGI (P388/ADR leukemia) was 3.34 µM, the TGI (PC-3 prostate) was 2.85 µM and the TGI (RPMI-8226 leukemia) was 3.73 µM. The TGI (RXF 393 renal) was 2.75 µM, the TGI (SF-539 CNS) was 3.41 µM and the TGI (SK-MEL-5 melanoma) was 3.06 µM. For the same molecule, the TGI (SN12C renal) was 3.4 µM, the TGI (SNB-75 CNS) was 2.74 µM and the TGI (TK-10 renal) was 56.5 µM. It also gave a TGI (UACC-257 melanoma) of 3.05 µM and a TGI (XF 498 CNS) of 3.34 µM.
